These are literature values, as cited in PubChem BioAssay AID1259410 (Chemical Carcinogenesis Research Information System (CCRIS), 2018).

The data set deals with rodent tumor promotion studies, tumor incidence. The experiment in a line: CCRIS tumor promotion studies.

Structures are written as SMILES.

`Oc1ccccc1-c1ccccc1`: the outcome by setting is: (Carcinogen: 7,12-DIMETHYLBENZ[A]ANTHRACENE, 57-97-6, Doses [Carcinogen]: 10 UG 2/WK FOR 5 WK, Doses [Promoter]: 0, 5 MG 2/WK FOR 47 WK BEGINNING 1 WK AFTER LAST CARCINOGEN DOSE (STUDY DURATION: 53 WK), Route [Carcinogen]: DERMAL, Route [Promoter]: DERMAL, Species: MOUSE, Strain/Sex: CD-1/FEMALE) “skin: papilloma, carcinoma”; (Carcinogen: N-BUTYL-N-4(HYDROXYBUTYL)NITROSAMINE, 3817-11-6, Doses [Carcinogen]: 0.05% IN DRINKING WATER FOR 2 WK, Doses [Promoter]: 0, 2% IN DIET STARTING POST CARCINOGEN AND CONTINUING FOR 22 WK, LEFT URETER LIGATED 8 D POST CARCINOGEN (STUDY DURATION, Route [Carcinogen]: ORAL, Route [Promoter]: ORAL, Species: RAT, Strain/Sex: F344/MALE) “bladder: papilloma”; (Carcinogen: N-BUTYL-N-(4-HYDROXYBUTYL)NITROSAMINE, Doses [Carcinogen]: 0.05% IN DRINKING WATER FOR 4 WK, Doses [Promoter]: 2.0% IN DIET FOR 32 WK AFTER INITIATION, Route [Carcinogen]: ORAL, Route [Promoter]: ORAL, Species: RAT, Strain/Sex: F344/MALE) “urinary bladder: transitional cell carcinoma”.
For the compound `Oc1ccc(Cl)cc1Cc1ccccc1`, the outcome (Carcinogen: 7,12-DIMETHYLBENZ[A]ANTHRACENE, 57-97-6, Doses [Carcinogen]: 50 UG IN ACETONE ONCE, Doses [Promoter]: 3 MG IN ACETONE 3/WK FOR 51 WK (STUDY DURATION: 52 WK), Route [Carcinogen]: DERMAL, Route [Promoter]: DERMAL, Species: MOUSE, Strain/Sex: CD-1/FEMALE) is “skin: papilloma”.
As for `COc1c(N2C[C@@H]3CCCN[C@@H]3C2)c(F)cc2c(=O)c(C(=O)O)cn(C3CC3)c12`, the outcome (Carcinogen: N-METHYL-N-NITROSOUREA, 684-93-5, Doses [Carcinogen]: 4.5 MG/KG BW 1/WK FOR FIRST 10 WK, Doses [Promoter]: 0, 500 MG/KG BW/D FOR 24 WK BEGINNING 14 WK POST CARCINOGEN FIRST DOSE (STUDY DURATION: 38 WK), Route [Carcinogen]: GAVAGE, Route [Promoter]: GAVAGE, Species: RAT, Strain/Sex: WISTAR/MALE, FEMALE) is recorded as “forestomach: squamous cell papilloma, glandular stomach adenocarcinoma”.
For the compound `Clc1ccc(-c2ccc(Cl)c(Cl)c2)cc1Cl`, the outcome is given as “mammary gland: tumor” (Carcinogen: 7,12-DIMETHYLBENZ[A]ANTHRACENE, 57-97-6, Doses [Carcinogen]: 10 MG IN 0.5 ML CORN OIL ONCE, Doses [Promoter]: 0, 10 MG/KG BW ONCE AT TIME OF CARCINOGEN DOSE THEN 500 UG/G OF FAT IN DIET FOR 1 WK ADMINISTERED TO RATS FED HIGH-FAT (, Route [Carcinogen]: GAVAGE, Route [Promoter]: GAVAGE, ORAL, Species: RAT, Strain/Sex: SPRAGUE-DAWLEY/FEMALE) and “mammary gland: tumor” (Carcinogen: 7,12-DIMETHYLBENZ[A]ANTHRACENE, 57-97-6, Doses [Carcinogen]: 10 MG IN 0.5 ML CORN OIL ONCE, Doses [Promoter]: 0, 10 MG/KG BW ONCE AT TIME OF CARCINOGEN DOSE THEN 500 UG/G OF FAT IN DIET FOR 1 WK ADMINISTERED TO RATS FED LOW FAT (5, Route [Carcinogen]: GAVAGE, Route [Promoter]: GAVAGE, ORAL, Species: RAT, Strain/Sex: SPRAGUE-DAWLEY/FEMALE).
Turning to `CN(CCCC(=O)O)N=O`, the outcome (Carcinogen: 1-NITROSO-1,3-DIMETHYLUREA, 13256-32-1, Doses [Carcinogen]: 10 MG/ML IN ETHYL ACETATE/CORN OIL (1:1) 1/WK FOR 2 WK, Doses [Promoter]: 0, 100 MG/L IN DRINKING WATER 5 D/WK FOR 40 WK BEGINNING 1/WK POST CARCINOGEN TREATMENT (STUDY DURATION: 43 WK), Route [Carcinogen]: GAVAGE, Route [Promoter]: ORAL, Species: RAT, Strain/Sex: F344/MALE) is on record as “urinary bladder: transitional cell carcinoma” and the outcome (Carcinogen: NITROSOBIS(2-OXOPROPYL)AMINE, 60599-38-4, Doses [Carcinogen]: 12 MG/ML IN ETHYLACETATE/CORN OIL (1:1) 2/WK FOR 2 WK, Doses [Promoter]: 0, 100 MG/L IN DRINKING WATER 5 D/WK FOR 40 WK BEGINNING 1 WK POST CARCINOGEN TREATMENT (STUDY DURATION: 43 WK), Route [Carcinogen]: GAVAGE, Route [Promoter]: ORAL, Species: RAT, Strain/Sex: F344/MALE) is “colon: adenocarcinoma; urinary bladder: transitional cell carcinoma”.
As to `Cc1nccc2c1[nH]c1ccccc12`, the outcome (Carcinogen: N-ETHYL-N-HYDROXYETHYLNITROSAMINE, 13147-25-6, Doses [Carcinogen]: 0.1% IN DRINKING WATER FOR 2 WK, Doses [Promoter]: 0, 1000 PPM IN DIET BEGINNING 1 WK POST CARCINOGEN TREATMENT AND CONTINUING FOR 23 WK (STUDY DURATION: 26 WK), Route [Carcinogen]: ORAL, Route [Promoter]: ORAL, Species: RAT, Strain/Sex: F344/MALE) is “kidney: adenoma”.
On to `O=C1NS(=O)(=O)c2ccccc21`, for which the outcome was “urinary bladder: transitional cell carcinoma” (Carcinogen: FREEZE ULCERATION, Doses [Promoter]: 0, 5% IN DIET BEGINNING IMMEDIATELY, 2, 4, 6 OR 18 WK AFTER ULCERATION OF THE BLADDER BY FREEZING AND CONTINUING FOR DUR, Route [Promoter]: ORAL, Species: RAT, Strain/Sex: F344/MALE); “urinary bladder” (Carcinogen: METHYLNITROSOUREA, Doses [Carcinogen]: BLADDER IMP, Doses [Promoter]: IN DIET, Route [Carcinogen]: BLADDER IMPLANT, Route [Promoter]: ORAL, Species: RAT, Strain/Sex: WISTAR/FEMALE); “bladder: papilloma and carcinoma” (Carcinogen: N-(4-(5-NITRO-2-FURYL)-2-THIAZOLYL)FORMAMIDE, 24554-26-5, Doses [Carcinogen]: 0.2% IN AIN-76A DIET FOR 4 WK, Doses [Promoter]: 0, 5% IN PROLAB DIET BEGINNING 1 WK POST CARCINOGEN TREATMENT AND CONTINUING FOR 100 WK (STUDY DURATION: 105 WK), Route [Carcinogen]: ORAL, Route [Promoter]: ORAL, Species: RAT, Strain/Sex: F344/MALE); “bladder: papilloma and carcinoma” (Carcinogen: N-(4-(5-NITRO-2-FURYL)-2-THIAZOLYL)FORMAMIDE, 24554-26-5, Doses [Carcinogen]: 0.2% IN PROLAB DIET FOR 4 WK, Doses [Promoter]: 0, 5% IN PROLAB DIET BEGINNING 1 WK POST CARCINOGEN TREATMENT AND CONTINUING FOR 100 WK (STUDY DURATION: 105 WK), Route [Carcinogen]: ORAL, Route [Promoter]: ORAL, Species: RAT, Strain/Sex: F344/MALE); “urinary bladder: carcinoma” (Carcinogen: N-(4-(5-NITRO-2-FURYL)-2-THIAZOLYL)FORMAMIDE, Doses [Carcinogen]: DIET, Doses [Promoter]: IN DIET, Route [Carcinogen]: ORAL, Route [Promoter]: ORAL, Species: RAT, Strain/Sex: F344/MALE); “bladder: papilloma” (Carcinogen: N-BUTYL-N-4(HYDROXYBUTYL)NITROSAMINE, 3817-11-6, Doses [Carcinogen]: 0.05% IN DRINKING WATER FOR 2 WK, Doses [Promoter]: 0, 5% IN DIET STARTING POST CARCINOGEN AND CONTINUING FOR 22 WK, LEFT URETER LIGATED 8 D POST CARCINOGEN (STUDY DURATION, Route [Carcinogen]: ORAL, Route [Promoter]: ORAL, Species: RAT, Strain/Sex: F344/MALE). The outcome (Carcinogen: N-BUTYL-N-(4-HYDROXYBUTYL)NITROSAMINE, 3817-11-6, Doses [Carcinogen]: 0.05% IN DRINKING WATER FOR 4 WK, Doses [Promoter]: 0, 5% IN DIET FOR 32 WK POST CARCINOGEN DOSE (STUDY DURATION: 36 WK), Route [Carcinogen]: ORAL, Route [Promoter]: ORAL, Species: RAT, Strain/Sex: F344/MALE) is recorded as “bladder: carcinoma or papilloma”; the outcome (Carcinogen: N-[4-(5-NITRO-2-FURYL)-2-THIAZOLYL]FORMAMIDE, 24554-26-5, Doses [Carcinogen]: 0.2% IN DIET FOR 6 WK, Doses [Promoter]: 0, 5% IN PROLAB DIET FOR 72 WK BEGINNING POST CARCINOGEN TREATMENT (STUDY DURATION: 78 WK), Route [Carcinogen]: ORAL, Route [Promoter]: ORAL, Species: RAT, Strain/Sex: F344/MALE) was “urinary bladder: carcinoma, carcinoma or papilloma”; the outcome (Carcinogen: N-[4-(5-NITRO-2-FURYL)-2-THIAZOLYL]FORMAMIDE, Doses [Carcinogen]: 0.2% IN DIET FOR 6 WK, Doses [Promoter]: 0, 3% IN PROLAB DIET FOR 72 WK BEGINNING POST CARCINOGEN TREATMENT (STUDY DURATION: 78 WK), Route [Carcinogen]: ORAL, Route [Promoter]: ORAL, Species: RAT, Strain/Sex: F344/MALE) is “urinary bladder: carcinoma, carcinoma or papilloma”.
As for `CNCCC(Oc1ccc(C(F)(F)F)cc1)c1ccccc1` (stereo unspecified), the outcome was “mammary gland: tumor” (Carcinogen: 7,12-DIMETHYLBENZ[A]ANTHRACENE, 57-97-6, Doses [Carcinogen]: 20 MG IN 2 ML PEANUT OIL ONCE, Doses [Promoter]: 0, 16 MG/M2 5 D/WK FOR 15 WK BEGINNING POST CARCINOGEN DOSE (STUDY DURATION: 15 WK), Route [Carcinogen]: GAVAGE, Route [Promoter]: INTRAPERITONEAL, Species: RAT, Strain/Sex: SPRAGUE-DAWLEY/FEMALE) and “mammary gland: tumor” (Carcinogen: 7,12-DIMETHYLBENZ[A]ANTHRACENE, 57-97-6, Doses [Carcinogen]: 20 MG IN 2 ML PEANUT OIL ONCE, Doses [Promoter]: 0, 40 MG/M2 5 D/WK FOR 15 WK BEGINNING POST CARCINOGEN DOSE (STUDY DURATION: 15 WK), Route [Carcinogen]: GAVAGE, Route [Promoter]: INTRAPERITONEAL, Species: RAT, Strain/Sex: SPRAGUE-DAWLEY/FEMALE).
